Experimental data as given in ChEMBL document CHEMBL5303711, “ECBD screening data for assay EOS300108” (2023).
Structures can show the parent of a compound that is named as a salt. The source made the active and inactive calls. The rule behind the calls is not given here.

Assay: Cytotoxicity activity against human HepG2 cells assessed by CellTiter-Glo luminescent cell viability assay.
Type: toxicity, cell-based
Set-up: assay stage confirmatory assay, source tissue liver
Settings: HepG2 cells, read-out: IC50 relative

## CN(C)C(=O)CO[C@@H]1COCC[C@H]1NC(=O)c1cn(C)c2ccccc12
  CC50: 6.3 µM (active)

## Cc1ccc(S(=O)(=O)c2cn(C)c3cc(N4CCN(C)CC4)c(F)cc3c2=O)cc1
  CC50: 15.1 µM (inactive)

## OCCOCCNCc1ccc(-c2cc(Cl)cc(Cl)c2)o1
  CC50: 11.7 µM (active)

## N[C@H]1CC[C@H](Nc2cc(-c3cccc(NCc4cccc(F)c4)n3)c(Cl)cn2)CC1
  CC50: 0.1 µM (active)

## N#Cc1ccc(NC(=O)Nc2cnn(-c3ccccc3)c2)cc1
  CC50: 8.9 µM (active)

## CCCS(=O)(=O)N1CCc2ccc(NC(=O)Nc3cccc(OC)c3)cc21
  CC50: 4.9 µM (active)

## O=C(CCCCCn1sc2ccccc2c1=O)Nc1ccc2c(c1)OCO2
  CC50: 3.5 µM (active)

## Nc1c(C(=O)NCc2ccco2)c2nc3ccccc3nc2n1CCN1CCCCC1
  CC50: 8.9 µM (active)

## Cc1cc2c(=O)nc(-c3cc(OCC(F)F)ccn3)[nH]c2s1
  CC50: 2.2 µM (active)

## C[C@@H](NCCCc1cccc(C(F)(F)F)c1)c1cccc2ccccc12 [CINACALCET HYDROCHLORIDE]
  CC50: 5.1 µM (active)

## Cc1c(-c2ccc(N3CCc4cccc(C(=O)Nc5nc6ccccc6s5)c4C3)nc2C(=O)O)cnn1CC12CC3CC(CC(C3)C1)C2
  CC50: 1 µM (active)

## N#Cc1c[nH]c(C(=O)Nc2cc(C(F)(F)F)ccn2)c1
  CC50: 12.3 µM (active)

## Cn1cnc2c(F)c(Nc3ccc(Br)cc3F)c(C(=O)NOCCO)cc21 [BINIMETINIB]
  CC50: < 0.1 µM (active)

## COc1ccc([C@@H](O)c2cc(-c3ncnc4cc(N5CCOCC5)ccc34)c(F)cc2Cl)nn1 [NEDISERTIB]
  CC50: 3.4 µM (active)

## C[C@H](O)CN1CCC(CNCc2ccc(Cl)cc2)CC1
  CC50: 7.6 µM (active)

## COc1cc(-c2nnc(SC3=CS(=O)(=O)c4ccccc43)o2)cc(OC)c1OC
  CC50: 2.5 µM (active)

## CC(C)(C)C[C@H]1N[C@@H](C(=O)N[C@H]2CC[C@H](O)CC2)[C@H](c2cccc(Cl)c2F)[C@@]12C(=O)Nc1cc(Cl)ccc12
  CC50: 4.9 µM (active)

## COc1cc(N2CCC(O)CC2)ccc1Nc1cc(Nc2ccccc2S(=O)(=O)C(C)C)c2cc[nH]c2n1
  CC50: 12.9 µM (active)

## O=C(c1ccc(F)c(F)c1Nc1ccc(I)cc1F)N1CC(O)(C2CCCCN2)C1 (racemic)
  CC50: < 0.1 µM (active)

## CC(C)c1cc(N2CCN(c3ccc(C#N)cc3)CC2)ncn1
  CC50: 5.7 µM (active)

## O=C(c1cccs1)c1no[n+]([O-])c1C(=O)c1cccs1
  CC50: 1.8 µM (active)

## O=C(Nc1ccnn1-c1ccc(Br)cn1)c1ccccn1
  CC50: 23.7 µM (inactive)

## CNC(=O)c1nnn(-c2ccc3ncccc3c2)c1C
  CC50: 2.2 µM (active)

## NCCCNc1nc(-c2ccccc2)nc2ccccc12
  CC50: 11.9 µM (active)

## CCc1nccn1[C@H]1CCCN(CCOc2ccccc2F)C1
  CC50: 9.3 µM (active)

## CCOc1cc(C)c(CN2C[C@@H](CN(C)C)C[C@H](CO)C2)cc1C(C)C
  CC50: 4.1 µM (active)

## COc1ccc(CNC(=O)C2CCN(S(=O)(=O)c3ccc4c(c3)CC(C)N4C(C)=O)CC2)cc1 (centres undefined)
  CC50: 29.7 µM (inactive)

## COc1ccc(-c2cc(C(=O)N3CCCCC3C)n[nH]2)cc1S(=O)(=O)N1CCCCC1 (centres undefined)
  CC50: 20.2 µM (inactive)

## CCOc1ccc(C(=O)N2CCN(Cc3noc(-c4ccc(F)cc4)n3)CC2)cc1
  CC50: 4.8 µM (active)

## C=CC(=O)Nc1ccc(CN(C(=O)Nc2c(Cl)c(OC)cc(OC)c2Cl)c2cc(Nc3ccc(N4CCN(C)CC4)cc3)ncn2)cc1
  CC50: 4.7 µM (active)

## CC1(C)N=C(N)N=C(N)N1c1ccc(Br)cc1
  CC50: 9.1 µM (inactive)

## CCc1ccc([N+]2=C3SCCCN3C[C@]2(O)c2ccc(OC)c(OC)c2)cc1
  CC50: 10.9 µM (active)

## Cn1ncnc2c(=O)n(C)c(=O)nc1-2
  CC50: 0.2 µM (active)

## O=C(NC1CCCC1)N1CC(Oc2ccc(-c3noc(-c4cccnc4)n3)cc2)C1
  CC50: 6.9 µM (active)

## Cc1ccc(CN2CCN(C3CCNC3)CC2)c(Cl)c1Cl (centres undefined)
  CC50: 7.7 µM (active)

## C[C@H]1O[C@@H](O[C@H]2[C@@H](O)C[C@H](O[C@H]3[C@@H](O)C[C@H](O[C@H]4CC[C@@]5(C)[C@H](CC[C@@H]6[C@@H]5CC[C@]5(C)[C@@H](C7=CC(=O)OC7)CC[C@]65O)C4)O[C@@H]3C)O[C@@H]2C)C[C@H](O)[C@@H]1O [DIGITOXIN]
  CC50: 0.1 µM (active)

## CC(C)CNC(=O)N1CC(Oc2ccc(-c3noc(-c4cccnc4)n3)cc2)C1
  CC50: 5.4 µM (active)

## COc1ccc(OC)c(S(=O)(=O)Nc2ccc3nc(S(C)(=O)=O)sc3c2)c1
  CC50: 6.9 µM (active)

## Cn1c(=O)c(F)c(Nc2ccc(I)cc2F)c2c(=O)n(C[C@@H](O)CO)cnc21 [TAK-733]
  CC50: < 0.1 µM (active)

## CCN1CCN(CC(O)COc2cc(C)c(Cl)c(C)c2)CC1 (centres undefined)
  CC50: 12.8 µM (inactive)

## CCCS(=O)(=O)Nc1ccc(Nc2nc(C)cc(N(CC)CC)n2)cc1
  CC50: 6.4 µM (active)

## c1ccc(-c2cn3c(n2)CCc2ccc4cccnc4c2-3)cc1
  CC50: 4 µM (active)

## Cc1nnsc1C(=O)Nc1ccc(-n2nc(C(F)(F)F)cc2C(F)(F)F)cc1
  CC50: 9.9 µM (active)

## Cn1cc(/C=C2\C(=O)Nc3cccnc32)c2ccccc21
  CC50: 8.1 µM (inactive)

## CN(C)/C=C/C=C/C=C/C1=[N+](C)c2ccccc2C1(C)C
  CC50: 10.3 µM (active)

## CCN(CC)Cc1ccccc1CNC(=O)N(CC)C[C@H]1COc2ccccc2O1
  CC50: 10.8 µM (active)

## CCc1cc2c(cc1CC)CC(NC[C@H](O)c1ccc(O)c3[nH]c(=O)ccc13)C2 [INDACATEROL]
  CC50: 9.1 µM (active)

## CC(=O)N1c2ccc(S(=O)(=O)N3CCC(C(=O)N4CC=C(c5ccccc5)CC4)CC3)cc2CC1C (centres undefined)
  CC50: 6.8 µM (active)

## Nc1ccc2c(c1)C(=O)C(=O)c1ccccc1-2
  CC50: 4.2 µM (active)

## CC(C)[C@]12O[C@H]1[C@@H]1O[C@]13[C@]1(O[C@H]1C[C@H]1C4=C(CC[C@@]13C)C(=O)OC4)[C@@H]2O [TRIPTOLIDE]
  CC50: < 0.1 µM (active)

## O=C(Nc1ccncc1)c1cccn(Cc2cccc(F)c2)c1=O
  CC50: 6.1 µM (active)

## COc1ccc(NC(=O)c2cc(-c3ccccc3O)no2)cc1
  CC50: 12.3 µM (active)

## CCc1nc(N)nc(N)c1-c1ccc(Cl)cc1 [PYRIMETHAMINE]
  CC50: 6 µM (active)

## O=c1c2ccccc2sn1-c1nccs1
  CC50: 50 µM (inactive)

## C1=CC[C@@H](CNC2CCN(Cc3ccccc3)CC2)CC1
  CC50: 13 µM (active)

## CCCNC(=O)N1CC(Oc2ccc(-c3noc(-c4ccncc4)n3)cc2)C1
  CC50: 3.1 µM (active)

## CC(=O)N1c2ccc(S(=O)(=O)N3CCOCC3)cc2CC1C(=O)NCCN1CCCCCC1 (centres undefined)
  CC50: 50 µM (inactive)

## Clc1ccc(OCC2CCCNC2)c2ccccc12 (centres undefined)
  CC50: 2 µM (active)

## CC(C)Oc1cc(Nc2nc(N[C@@H](C)c3ccc(F)cn3)ncc2Cl)n[nH]1
  CC50: 2.6 µM (active)

## COCCNCc1ccc(-c2cc3nccc(Oc4ccc(NC(=O)C5(C(=O)Nc6ccc(F)cc6)CC5)cc4F)c3s2)nc1 [SITRAVATINIB]
  CC50: 4.6 µM (active)

## Cc1ccc(C)c(N2CCN(CCCNC(=O)C3CCN(c4ccc5nnc(C)n5n4)CC3)CC2)c1
  CC50: 8.7 µM (active)

## CC(C)c1cnn2c(NCc3ccccc3)cc(NC[C@H]3CCNC[C@@H]3O)nc12
  CC50: 0.8 µM (active)

## CN(C)S(=O)(=O)c1cccc(NC(=O)c2ccc(S(=O)(=O)N(C)c3ccccc3)cc2)c1
  CC50: 2.6 µM (active)

## ON=C1C[C@@H](c2ccc(Cl)cc2)Oc2ccccc21
  CC50: 2.7 µM (active)
